From ChEMBL document CHEMBL3862043, “Fluorescent Inhibitors as Tools To Characterize Enzymes: Case Study of the Lipid Kinase Phosphatidylinositol 4-Kinase IIIβ (PI4KB)” (J Med Chem, 2017)

Assay: Drug uptake in vesicles of HeLa cells transfected with iRFP-tagged PI4KB (unknown origin) incubated for 30 mins by fluorescence spectroscopy
Assay type: ADME, cell-based
Settings: human, 0.5 h; call rule not given here

## CCc1cc(CNc2cc(Cl)nn3c(-c4ccc(OC)c(S(=O)(=O)NCc5cn(-c6cc7ccc(O)cc7oc6=O)nn5)c4)c(C)nc23)ccn1
  Drug uptake: Active
